These results are taken from patent publication US11117907B2, “Curcuminoid-inspired synthetic compounds as anti-tumor agents” (University of North Florida Board of Trustees, priority 2017, dated 2021).

`FC(F)(F)Sc1ccc(C=Cc2cc(C=Cc3ccc(SC(F)(F)F)cc3)on2)cc1` [compound 30 of FIG. 43, 3,5-bis-(4-Trifluoromethylthiostyryl)-isoxazole] gave a melting point of 165 to 167 °C.
As for `COc1cc(F)c(C=Cc2cc(C=Cc3cc(OC)c(OC)cc3F)n(-c3cccc(C(F)(F)F)c3)n2)cc1OC` [compound 24 of FIG. 43, 3,5-bis-(6-Fluoro-3,4-dimethoxystyryl)-1-(3-trifluoromethylphenyl)pyrazole], the figure is 130 to 134 °C.
As for `O=C(/C=C/c1ccc(OC(F)(F)F)cc1)/C=C(O)\C=C\c1ccc(OC(F)(F)F)cc1` [compound 17 of FIG. 35, (1E,4E,6E)-5-Hydroxy-1,7-bis(4-trifluoromethoxyphenyl)hepta-1,4,6-trien-3-one], the figure is 108 to 111 °C.
Next, `O=C(/C=C/c1cc2ccccc2o1)/C=C(O)\C=C\c1cc2ccccc2o1` [compound 9 of Example 5, (1E,4E,6E)-5-Hydroxy-1,7-bis(benzo[b]furan-2-yl)hepta-1,4,6-trien-3-one]: 178 to 180 °C; `COc1ccc(/C=C/C(=O)C(F)(F)C(=O)/C=C/c2ccc(OC)c(OC)c2)cc1OC` [compound 7 of FIG. 2, (1E,6E)-4,4-Difluoro-1,7-bis(3,4-dimethoxyphenyl)hepta-1,6-diene-3,5-dione]: 148 to 149 °C; `COc1cc(F)c(/C=C/C(=O)C(F)(F)C(=O)/C=C/c2cc(OC)c(OC)cc2F)cc1OC` [compound 16 of FIG. 2, (1E,6E)-4,4-Difluoro-1,7-bis(3,4-dimethoxy-6-fluorophenyl)hepta-1,6-diene-3,5-dione]: 162 to 163 °C.
`O=C(/C=C/c1ccc(C(F)(F)F)cc1)/C(F)=C(O)/C=C/c1ccc(C(F)(F)F)cc1` [compound 22 of FIG. 2, (1E,4E,6E)-4-Fluoro-1,7-bis(4-trifluoromethyl-phenyl)-5-hydroxy-hepta-1,4,6-trien-3-one] had a melting point of 144 to 146 °C.
The compound `Fc1ccc(C=Cc2cc(C=Cc3ccc(F)cc3)n(-c3cccc(C(F)(F)F)c3)n2)cc1` [compound 33 of FIG. 43, 3,5-bis-(4-Fluorostyryl)-1-(3-trifluoromethylphenyl)pyrazole] had a melting point of 98 to 100 °C.
As for `O=C(/C=C/c1ccc(C(F)(F)F)cc1)C(F)(F)C(=O)/C=C/c1ccc(C(F)(F)F)cc1` [compound 21 of FIG. 2, (1E,6E)-4,4-Difluoro-1,7-bis(4-trifluoromethyl-phenyl)hepta-1,6-diene-3,5-dione], the figure is 75 to 76 °C; as for `O=C(/C=C/c1ccc(F)cc1)/C(F)=C(O)/C=C/c1ccc(F)cc1` [compound 13 of FIG. 2, (1E,4E,6E)-4-Fluoro-1,7-bis(4-fluorophenyl)-5-hydroxy-hepta-1,4,6-trien-3-one], 152 to 153 °C.
With `FC(F)(F)Sc1ccc(C=Cc2cc(C=Cc3ccc(SC(F)(F)F)cc3)n(-c3cccc(C(F)(F)F)c3)n2)cc1` [compound 29 of FIG. 43, 3,5-bis-(4-trifluoromethylthiostyryl)-1-(3-trifluoromethylphenyl)pyrazole], the melting point lay in the range of 121 to 122 °C.
As for `COc1ccc(/C=C/C(=O)/C=C(O)\C=C\c2ccc(OC)c(OC)c2OC)c(OC)c1OC` [compound 7 of FIG. 35, (1E,4E,6E)-5-Hydroxy-1,7-bis(2,3,4-trimethoxyphenyl)hepta-1,4,6-trien-3-one], the figure is 104 to 106 °C; as for `COc1cc(F)c(C=Cc2cc(C=Cc3cc(OC)c(OC)cc3F)n(-c3ccccc3)n2)cc1OC` [compound 22 of FIG. 43, 3,5-bis-(6-Fluoro-3,4-dimethoxystyryl)-1-phenylpyrazole], 142 to 144 °C.
Turning to `N#Cc1ccc(-n2nc(C=Cc3ccc(F)cc3)cc2C=Cc2ccc(F)cc2)cc1` [compound 35 of FIG. 43, 3,5-bis-(4-Fluorostyryl)-1-(4-cyanophenyl)pyrazole], the melting point was 209 to 211 °C.
Next, `COc1cc(F)c(C=Cc2cc(C=Cc3cc(OC)c(OC)cc3F)n(-c3ccc(C#N)cc3)n2)cc1OC` [compound 26 of FIG. 43, 3,5-bis-(6-Fluoro-3,4-dimethoxystyryl)-1-(4-cyanophenyl)pyrazole]: 91 to 93 °C; `COc1cc(C=Cc2cc(C=Cc3cc(OC)c(OC)c(OC)c3)n(-c3ccccc3)n2)cc(OC)c1OC` [compound 41 of FIG. 43, 3,5-bis-(3,4,5-Trimethoxy-styryl)-1-phenylpyrazole]: 144 to 146 °C; `Fc1ccc(C=Cc2cc(C=Cc3ccc(F)cc3)n(-c3ccccc3)n2)cc1` [compound 31 of FIG. 43, 3,5-bis-(4-Fluorostyryl)-1-phenylpyrazole]: 109 to 111 °C.
As for `COc1ccc(/C=C/C(=O)/C(F)=C(O)/C=C/c2ccc(OC)c(OC)c2)cc1OC` [compound 8 of FIG. 2, (1E,4E,6E)-4-Fluoro-5-hydroxy-1,7-bis(3,4-dimethoxyphenyl)hepta-1,4,6-trien-3-one], the figure is 145 to 146 °C; as for `FC(F)(F)c1ccc(C=Cc2cc(C=Cc3ccc(C(F)(F)F)cc3)n(-c3ccccc3)n2)cc1` [compound 37 of FIG. 43, 3,5-bis-(4-Trifluoromethylstyryl)-1-phenylpyrazole], 137 to 139 °C; as for `O=C(/C=C/c1cccc(OC(F)(F)F)c1)/C=C(O)\C=C\c1cccc(OC(F)(F)F)c1` [compound 15 of FIG. 35, (1E,4E,6E)-5-Hydroxy-1,7-bis(3-trifluoromethoxyphenyl)hepta-1,4,6-trien-3-one], 68 to 70 °C.
As for `COc1cc(F)c(/C=C/C(=O)/C=C(O)\C=C\c2cc(OC)c(OC)cc2F)cc1OC` [compound 15 of FIG. 2, (1E,4E,6E)-5-Hydroxy-1,7-bis(3,4-dimethoxy-6-fluorophenyl)hepta-1,4,6-trien-3-one], the melting point fell in the range of 154 to 156 °C.
In turn, `O=C(/C=C/c1ccc(C(F)(F)F)cc1)/C=C(O)\C=C\c1ccc(C(F)(F)F)cc1` [compound 20 of FIG. 2, (1E,4E,6E)-1,7-Bis(4-trifluoromethyl-phenyl)-5-hydroxy-hepta-1,4,6-trien-3-one] showed a melting point of 153 to 154 °C.
Next, `O=C(/C=C/c1csc2ccccc12)/C=C(O)\C=C\c1csc2ccccc12` [compound 7 of Example 5, (1E,4E,6E)-5-Hydroxy-1,7-bis(benzo[b]thiophen-3-yl)hepta-1,4,6-trien-3-one]: 159 to 160 °C.
Take `COc1cc(F)c(C=Cc2cc(C=Cc3cc(OC)c(OC)cc3F)n(-c3cc(F)cc(F)c3)n2)cc1OC` [compound 25 of FIG. 43, 3,5-bis-(6-Fluoro-3,4-dimethoxystyryl)-1-(3,5-difluorophenyl) pyrazole]: the melting point is 115 to 117 °C.
Consider `COc1cc(F)c(/C=C/C(=O)C(F)C(=O)/C=C/c2cc(OC)c(OC)cc2F)cc1OC` [compound 18 of FIG. 2, (1E,6E)-4-Fluoro-1,7-bis(3,4-dimethoxy-6-fluorophenyl)hepta-1,6-diene-3,5-dione], for which the melting point is more than 260 °C.
As for `COc1ccc(/C=C/C(=O)/C=C(O)\C=C\c2ccc(OC)c(OCc3ccccc3)c2)cc1OCc1ccccc1` [compound 3 of FIG. 35, (1E,4E,6E)-5-Hydroxy-1,7-bis(3-benzyloxy-4-methoxyphenyl)hepta-1,4,6-trien-3-one], the melting point is 153 to 155 °C.
As for `O=C(/C=C/c1ccc(F)cc1)C(F)(F)C(=O)/C=C/c1ccc(F)cc1` [compound 12 of FIG. 2, (1E,6E)-4,4-Difluoro-1,7-bis(4-fluorophenyl)hepta-1,6-diene-3,5-dione], the melting point fell in the range of 72 to 73 °C.
As for `COc1cc(/C=C/C(=O)/C(F)=C(O)/C=C/c2ccc(O)c(OC)c2)ccc1O` [compound 4 of FIG. 2, (1E,4E,6E)-4-Fluoro-5-hydroxy-1,7-bis(4-hydroxy-3-methoxyphenyl)hepta-1,4,6-trien-3-one], the figure is 154 to 155 °C; as for `COc1cc(F)c(/C=C/C(=O)/C(F)=C(O)/C=C/c2cc(OC)c(OC)cc2F)cc1OC` [compound 17 of FIG. 2, (1E,4E,6E)-4-Fluoro-5-hydroxy-1,7-bis(3,4-dimethoxy-6-fluorophenyl)hepta-1,4,6-trien-3-one], 148 to 150 °C.
Next, `O=C(/C=C/c1ccc(F)c(F)c1F)/C=C(O)\C=C\c1ccc(F)c(F)c1F` [compound 21 of FIG. 35, (1E,4E,6E)-5-Hydroxy-1,7-bis(2,3,4-trifluorophenyl)hepta-1,4,6-trien-3-one]: 156 to 158 °C.
Regarding `COc1cc(C=Cc2cc(C=Cc3cc(OC)c(OC)c(OC)c3)n(-c3ccc(OC(F)(F)F)cc3)n2)cc(OC)c1OC` [compound 42 of FIG. 43, 3,5-bis-(3,4,5-Trimethoxy-styryl)-1-(4-trifluoromethoxyphenyl) pyrazole], the melting point was 140 to 142 °C.
Compound `COc1cc(F)c(C=Cc2cc(C=Cc3cc(OC)c(OC)cc3F)n(-c3ccc(OC(F)(F)F)cc3)n2)cc1OC` [compound 23 of FIG. 43, 3,5-bis-(6-Fluoro-3,4-dimethoxystyryl)-1-(4-trifluoromethoxyphenyl)pyrazole] displayed a melting point of 80 to 83 °C.
For the compound `O=C(/C=C/c1ccc(OCc2ccccc2)c(OCc2ccccc2)c1)/C=C(O)\C=C\c1ccc(OCc2ccccc2)c(OCc2ccccc2)c1` [compound 5 of FIG. 35, (1E,4E,6E)-5-Hydroxy-1,7-bis(3,4-dibenzyloxyphenyl)hepta-1,4,6-trien-3-one], the melting point fell in the range of 150 to 153 °C.
Next, `Fc1ccc(C=Cc2cc(C=Cc3ccc(F)cc3)n(-c3ccc(OC(F)(F)F)cc3)n2)cc1` [compound 32 of FIG. 43, 3,5-bis-(4-Fluorostyryl)-1-(4-trifluoromethoxyphenyl)pyrazole]: 155 to 156 °C; `FC(F)(F)Sc1ccc(C=Cc2cc(C=Cc3ccc(SC(F)(F)F)cc3)n(-c3ccccc3)n2)cc1` [compound 28 of FIG. 43, 3,5-bis-(4-Trifluoromethylthiostyryl)-1-phenylpyrazole]: 119 to 121 °C.
In the case of `Fc1ccc(C=Cc2cc(C=Cc3ccc(F)cc3)n(-c3ccc(F)c(F)c3)n2)cc1` [compound 34 of FIG. 43, 3,5-bis-(4-Fluorostyryl)-1-(3,4-difluorophenyl)pyrazole], the melting point was 169 to 170 °C.

A word on the melting point: it is the temperature of the solid-liquid transition.
